Literature values in PMC3591469 (Bioorganic & medicinal chemistry letters, 2011).

Test system: recombinant Brd4 protein derived from bacteria
Details: cell-permeable small molecule

For Cc1sc2c(c1C)C(c1ccc(Cl)cc1)=N[C@@H](CC(=O)OC(C)(C)C)c1nnc(C)n1-2 [JQ1], the “inhibition of recombinant Brd4” value is given as “selective and potent inhibitor”.
